US20140142185A1, “3-Benzyloxyphenyloxoacetic Acid Compounds for Reducing Uric Acid” (priority 2011, published 2014)

Target: T1, Human URAT1 (Homo sapiens, UniProt Q96S37)
T1 construct: The full-length hURAT1 cDNA was obtained from the vector pCMV6-XL5 and subcloned into the expression vector pCMV6-Neo
T1 sequence (Q96S37 1-553): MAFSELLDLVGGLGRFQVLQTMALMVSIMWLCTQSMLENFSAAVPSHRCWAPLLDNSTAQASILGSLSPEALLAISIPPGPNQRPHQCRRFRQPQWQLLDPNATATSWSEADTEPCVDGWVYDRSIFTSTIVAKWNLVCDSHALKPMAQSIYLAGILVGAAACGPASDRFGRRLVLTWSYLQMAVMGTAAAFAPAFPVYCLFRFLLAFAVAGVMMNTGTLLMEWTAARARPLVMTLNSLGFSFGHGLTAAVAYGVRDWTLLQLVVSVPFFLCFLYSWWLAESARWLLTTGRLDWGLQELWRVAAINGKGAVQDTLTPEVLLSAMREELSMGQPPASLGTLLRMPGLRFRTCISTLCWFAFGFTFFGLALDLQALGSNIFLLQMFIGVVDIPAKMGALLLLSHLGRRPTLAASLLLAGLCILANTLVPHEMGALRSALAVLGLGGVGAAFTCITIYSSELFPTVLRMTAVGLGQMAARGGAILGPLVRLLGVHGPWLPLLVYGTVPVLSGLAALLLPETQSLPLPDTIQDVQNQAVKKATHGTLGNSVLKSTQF
Test: URAT1 inhibition assay: [8-14C] urate uptake in hURAT1-expressing HEK293 cells
Type: cell-based
Conditions: for inhibition at 10 µM: Human URAT1-Expressing HEK293 cells, 50 μM [8-14C] urate, 5 min, read-out: % Inhibition of uric acid uptake
Description: An in vitro URAT1 assay is useful for identifying compounds with potential activity in lowering serum uric acid. A suitable assay involves transfection of cells (e.g. human embryonic kidney cells; “HEK”) with a vector encoding human URAT1, followed by determination of the ability of transfected cells to take up radiolabeled uric acid. The activity of compounds as URAT1 inhibitors is evaluated by their ability to block uric acid uptake by transfected cells.
Plasmid vector pCMV6-XL5 containing hURAT1 cDNA (Cat. No. SC125624) and the expression vector pCMV6-Neo (Cat. No. pCMVNEO) were obtained from OriGene Technologies, Inc. The full-length hURAT1 cDNA was obtained from the vector pCMV6-XL5 and subcloned into the expression vector pCMV6-Neo to create the hURAT1 expression plasmid pCMV6-hURAT1. The sequences were verified by automatic DNA sequencing.
Human embryonic kidney 293 (HEK) cells (ATTCC, Cat No. CRL-1573) were cultured in EMEM supplemented with 10% FBS and 2 mM L-glutamine and incubated at 37° C. and 5% CO2. For transfection experiments, cells were plated on 60 mm dishes in 1 ml media per dish. After an 18-24 hour incubation, cells were transfected with plasmid pCMV6-hURAT1 or the expression vector pCMV6-Neo, using the Lipofectin trasfection agent following the manufacturer's instructions (Invitrogen, Cat. No. 18292). After transfection cells were grown in EMEM media for 72 hours and then by adding 1 mg/ml Geneticin (GIBCO, Cat. No 10131) stable transfectants were selected. […]
hURAT1-HEK cells and mock-HEK cells were plated in poly-D-Lysine Cell culture 24 well plates (Becton Dickinson, Cat. No. 354414) at a concentration of 3×10^5 in EMEM medium and incubated overnight. […] The cell lysates were transferred into the scintillation vials containing 1 ml of scintillation fluid (Opti Phase SuperMIX, PerkinElmer, Cat No. 1200-439) and the radioactivity was counted in the Microbeta counter (1450, Wallac Jet, PerkinElmer). […] The radioactivity values obtained for the wells that contained DMSO were taken as 100% uptake of the cells. […]

Row | inhibition at 10 µM [%] | IC50 (uric acid uptake in hURAT1-HEK cells) [nM] | SMILES
1 | 87.4 | 1280 | Cc1ccc(C(=O)C(=O)O)cc1OCc1c(C)cccc1C [Cpd. FF, 2-(3-(2,6-dimethylbenzyloxy)-4-methylphenyl)-2-oxoacetic acid]
2 | 67.1 |  | COc1ccc(C(=O)C(=O)O)cc1OCc1c(C)cccc1C [Cpd. FG, 2-(3-(2,6-dimethylbenzyloxy)-4-methoxyphenyl)-2-oxoacetic acid]
